Assay results: PubChem BioAssay AID192 (DTP/NCI, 2004)
“And” between values parts separate entries of the source, which are not always exact repeats. Identical values can stand only once. Toxic doses and inconclusive results are not listed. Numbered stars: 1 amine (or outer) side, 2 acyl side, 3 side chain; on linkers, the order of the positions; unused ones are H or OH. Square brackets hold non-standard residues; d marks the D form. Peptide text beside a SMILES is read from it. * marks the point of attachment. X6 = CCC(=O)CC1CC(C)CC(C(=O)[*:2])N1[*:1]; X5 = CCCCCCCCC(C)C(=O)*; Aib = CC(C)(N)C(=O)O; X7 = CC(CN(C)CCO)N*

Tested on: BDF1 mice, B16 melanoma ip, median survival T/C
Assay: NCI In Vivo Anticancer Drug Screen. Data for tumor model B16 Melanoma (intraperitoneal) in B6D2F1 (BDF1) mice
Conditions: endpoint: median survival time, higher = longer survival
How it was run: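 Transplantable tumor model; survival or tumor size measured; reported as T/C, treated over vehicle control.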

[1] = dose: 6.25 mg/kg/injection, schedule: Q01DX009 (ip), vehicle: saline
[2] = dose: 12.5 mg/kg/injection, schedule: Q01DX009 (ip), vehicle: saline
[3] = dose: 25.0 mg/kg/injection, schedule: Q04DX003 (ip), vehicle: saline
[4] = dose: 50.0 mg/kg/injection, schedule: Q04DX003 (ip), vehicle: saline
[5] = dose: 0.78 mg/kg/injection, schedule: Q01DX009 (ip), vehicle: saline
[6] = dose: 1.56 mg/kg/injection, schedule: Q01DX009 (ip), vehicle: saline
[7] = dose: 3.12 mg/kg/injection, schedule: Q01DX009 (ip), vehicle: saline
[8] = dose: 50.0 mg/kg/injection, schedule: Q01DX009 (ip), vehicle: saline with Tween-80
[9] = dose: 100.0 mg/kg/injection, schedule: Q01DX009 (ip), vehicle: saline with Tween-80
[10] = dose: 200.0 mg/kg/injection, schedule: Q01DX009 (ip), vehicle: saline with Tween-80

## CC[N+](CC)(CC)CC
dose: 0.37 mg/kg/injection, schedule: Q01DX009 (ip), vehicle: saline with Tween-80
  T/C: 103 % of control
dose: 0.75 mg/kg/injection, schedule: Q01DX009 (ip), vehicle: saline with Tween-80
  T/C: 100 % of control
dose: 1.5 mg/kg/injection, schedule: Q01DX009 (ip), vehicle: saline with Tween-80
  T/C: 112 % of control
dose: 3.0 mg/kg/injection, schedule: Q01DX009 (ip), vehicle: saline with Tween-80
  T/C: 120 % of control
[1]
  T/C: 123 % of control
dose: 11.0 mg/kg/injection, schedule: Q01DX009 (ip), vehicle: saline
  T/C: 112 % of control
[2]
  T/C: 109 % of control
dose: 16.5 mg/kg/injection, schedule: Q01DX009 (ip), vehicle: saline
  T/C: 108 % of control
[3]
  T/C: 100 % of control
dose: 37.5 mg/kg/injection, schedule: Q01DX009 (ip), vehicle: saline
  T/C: 108 % of control
dose: 50.0 mg/kg/injection, schedule: Q01DX009 (ip), vehicle: saline
  T/C: 90 % of control
[4]
  T/C: 100 % of control

## C[C@@H](CN1CC(=O)NC(=O)C1)N1CC(=O)NC(=O)C1
dose: 8.0 mg/kg/injection, schedule: Q01DX009 (ip), vehicle: saline with Tween-80
  T/C: 100 % of control
dose: 16.0 mg/kg/injection, schedule: Q01DX009 (ip), vehicle: saline with Tween-80
  T/C: 117 % of control
dose: 16.0 mg/kg/injection, schedule: Q01DX009 (ip), vehicle: water
  T/C: 107 % of control and 122 % of control
dose: 25.0 mg/kg/injection, schedule: Q04DX003 (ip), vehicle: water
  T/C: 101 % of control and 107 % of control
dose: 32.0 mg/kg/injection, schedule: Q01DX009 (ip), vehicle: saline with Tween-80
  T/C: 112 % of control
dose: 32.0 mg/kg/injection, schedule: Q01DX009 (ip), vehicle: water
  T/C: 111 % of control
dose: 50.0 mg/kg/injection, schedule: Q04DX003 (ip), vehicle: water
  T/C: 103 % of control
dose: 100.0 mg/kg/injection, schedule: Q04DX003 (ip), vehicle: water
  T/C: 104 % of control and 112 % of control
dose: 128.0 mg/kg/injection, schedule: Q01DX009 (ip), vehicle: water
  T/C: 113 % of control
dose: 200.0 mg/kg/injection, schedule: Q04DX003 (ip), vehicle: water
  T/C: 103 % of control
dose: 256.0 mg/kg/injection, schedule: Q01DX009 (ip), vehicle: water
  T/C: 87 % of control
dose: 400.0 mg/kg/injection, schedule: Q04DX003 (ip), vehicle: water
  T/C: 117 % of control
dose: 800.0 mg/kg/injection, schedule: Q04DX003 (ip), vehicle: water
  T/C: 88 % of control

## Cc1ccc(N=P(c2ccccc2)(c2ccccc2)c2ccccc2)cc1
dose: 100.0 mg/kg/injection, schedule: Q01DX009 (ip), vehicle: Klucel (hydroxypropylcellulose) (HPC)
  T/C: 94 % of control
dose: 200.0 mg/kg/injection, schedule: Q01DX009 (ip), vehicle: Klucel (hydroxypropylcellulose) (HPC)
  T/C: 108 % of control
dose: 400.0 mg/kg/injection, schedule: Q01DX009 (ip), vehicle: Klucel (hydroxypropylcellulose) (HPC)
  T/C: 91 % of control

## CC(NC(=O)c1ccccc1)C(=O)NC(CSC(c1ccccc1)c1ccccc1)C(=O)O (configuration not stated)
dose: 12.5 mg/kg/injection, schedule: Q04DX003 (ip), vehicle: saline
  T/C: 107 % of control
[3]
  T/C: 110 % of control
[4]
  T/C: 89 % of control

## CN1CCN(CCCN2c3ccccc3Sc3ccc(C(F)(F)F)cc32)CC1
dose: 0.58 mg/kg/injection, schedule: Q01DX009 (ip), vehicle: saline
  T/C: 117 % of control
[5]
  T/C: 102 % of control
dose: 1.17 mg/kg/injection, schedule: Q01DX009 (ip), vehicle: saline
  T/C: 112 % of control
[6]
  T/C: 102 % of control
dose: 2.34 mg/kg/injection, schedule: Q01DX009 (ip), vehicle: saline
  T/C: 112 % of control
[7]
  T/C: 112 % of control and 110 % of control
dose: 4.68 mg/kg/injection, schedule: Q01DX009 (ip), vehicle: saline
  T/C: 97 % of control
[1]
  T/C: 102 % of control and 95 % of control
dose: 9.37 mg/kg/injection, schedule: Q01DX009 (ip), vehicle: saline
  T/C: 115 % of control
[2]
  T/C: 105 % of control and 102 % of control
dose: 25.0 mg/kg/injection, schedule: Q01DX009 (ip), vehicle: saline
  T/C: 102 % of control

## COC(CCCl)c1ccc(Cl)cc1 (configuration not stated)
[8]
  T/C: 102 % of control
[9]
  T/C: 97 % of control
[10]
  T/C: 87 % of control

## O=NN(CCF)C(=O)NC1C(O)CCCC1O (configuration not stated)
dose: 1.88 mg/kg/injection, schedule: Q01DX001 (ip), vehicle: saline
  T/C: 121 % of control
dose: 7.5 mg/kg/injection, schedule: Q01DX001 (ip), vehicle: saline
  T/C: 199 % of control
dose: 15.0 mg/kg/injection, schedule: Q01DX001 (ip), vehicle: saline
  T/C: 212 % of control
dose: 30.0 mg/kg/injection, schedule: Q01DX001 (ip), vehicle: saline
  T/C: 263 % of control
dose: 60.0 mg/kg/injection, schedule: Q01DX001 (ip), vehicle: saline
  T/C: 226 % of control

## O=C(O)C(O)C(O)C1[O][Sb][O]C1CO (configuration not stated)
dose: 5.0 mg/kg/injection, schedule: Q01DX009 (ip), vehicle: saline
  T/C: 96 % of control
dose: 100.0 mg/kg/injection, schedule: Q01DX009 (ip), vehicle: saline
  T/C: 100 % of control
dose: 200.0 mg/kg/injection, schedule: Q01DX009 (ip), vehicle: saline
  T/C: 88 % of control

## O=C(CC(O)(C(F)(F)F)C(F)(F)F)c1cccc2ccccc12
dose: 100.0 mg/kg/injection, schedule: Q04DX003 (ip), vehicle: Klucel (hydroxypropylcellulose) (HPC)
  T/C: 90 % of control
dose: 200.0 mg/kg/injection, schedule: Q04DX003 (ip), vehicle: Klucel (hydroxypropylcellulose) (HPC)
  T/C: 95 % of control
dose: 400.0 mg/kg/injection, schedule: Q04DX003 (ip), vehicle: Klucel (hydroxypropylcellulose) (HPC)
  T/C: 102 % of control

## O=C(Nc1cccc(Cl)c1)OCC(Cl)(Cl)Cl
dose: 75.0 mg/kg/injection, schedule: Q01DX009 (ip), vehicle: Klucel (hydroxypropylcellulose) (HPC)
  T/C: 109 % of control
dose: 150.0 mg/kg/injection, schedule: Q01DX009 (ip), vehicle: Klucel (hydroxypropylcellulose) (HPC)
  T/C: 103 % of control
dose: 300.0 mg/kg/injection, schedule: Q01DX009 (ip), vehicle: Klucel (hydroxypropylcellulose) (HPC)
  T/C: 103 % of control

## C1CCC2[N-]CC3CCCCC3[N-]CC3CCCCC3[N-]CC3CCCCC3[N-]CC2C1.[Cu+2].[O-][Cl+3]([O-])([O-])O (configuration not stated)
dose: 3.12 mg/kg/injection, schedule: Q01DX009 (ip), vehicle: Klucel (hydroxypropylcellulose) (HPC)
  T/C: 153 % of control
dose: 6.25 mg/kg/injection, schedule: Q01DX009 (ip), vehicle: Klucel (hydroxypropylcellulose) (HPC)
  T/C: 161 % of control
dose: 12.5 mg/kg/injection, schedule: Q01DX009 (ip), vehicle: Klucel (hydroxypropylcellulose) (HPC)
  T/C: 164 % of control

## CCCCCCCCC(C)C(=O)N1CCCC1C(=O)N1C(CC(=O)CC)CC(C)CC1C(=O)NC(C)C(=O)NC(C)(C)C(=O)NC(C)(C)C(=O)NC(C(=O)NC(C)C(=O)NC(C)(C)C(=O)NC(C)(C)C(=O)NC(C)CN(C)CCO)C(C)CC (configuration not stated) (X5-P[X6]A[Aib][Aib]IA[Aib][Aib]-X7; configuration not given here)
dose: 0.63 mg/kg/injection, schedule: Q01DX009 (ip), vehicle: Klucel (hydroxypropylcellulose) (HPC)
  T/C: 102 % of control
dose: 1.25 mg/kg/injection, schedule: Q01DX009 (ip), vehicle: Klucel (hydroxypropylcellulose) (HPC)
  T/C: 90 % of control
dose: 2.5 mg/kg/injection, schedule: Q01DX009 (ip), vehicle: Klucel (hydroxypropylcellulose) (HPC)
  T/C: 95 % of control

## CC[C@@]1(O)C(=O)OCc2c1cc1n(c2=O)Cc2cc3cc(O)ccc3nc2-1
dose: 0.2 mg/kg/injection, schedule: Q01DX009 (ip), vehicle: other
  T/C: 157 % of control
dose: 0.39 mg/kg/injection, schedule: Q01DX009 (ip), vehicle: other
  T/C: 151 % of control
dose: 0.79 mg/kg/injection, schedule: Q01DX009 (ip), vehicle: other
  T/C: 179 % of control
dose: 1.57 mg/kg/injection, schedule: Q01DX009 (ip), vehicle: other
  T/C: 184 % of control

## CC(CN1CCN(CCOCCO)CC1)CN1c2ccccc2Sc2ccc(Cl)cc21 (configuration not stated)
dose: 0.09 mg/kg/injection, schedule: Q01DX009 (ip), vehicle: saline
  T/C: 117 % of control
dose: 0.19 mg/kg/injection, schedule: Q01DX009 (ip), vehicle: saline
  T/C: 98 % of control
dose: 0.39 mg/kg/injection, schedule: Q01DX009 (ip), vehicle: saline
  T/C: 121 % of control
[5]
  T/C: 104 % of control
[6]
  T/C: 115 % of control
[7]
  T/C: 100 % of control
[1]
  T/C: 101 % of control

## COC(=O)c1ccccc1C=C(c1ccc([N+](=O)[O-])cc1)c1ccc([N+](=O)[O-])cc1
[8]
  T/C: 97 % of control
[9]
  T/C: 113 % of control
[10]
  T/C: 91 % of control

## CCN(C(=O)Nc1ccc(Cl)cc1)c1ccccc1
[9]
  T/C: 94 % of control
[10]
  T/C: 97 % of control
dose: 400.0 mg/kg/injection, schedule: Q01DX009 (ip), vehicle: saline with Tween-80
  T/C: 92 % of control
